Data taken from publication PMC8632718, “Novel Assay Platform to Evaluate Intracellular Killing of Mycobacterium tuberculosis: In Vitro and In Vivo Validation” (Frontiers in Immunology, 2021).
Ends that are not written are not given here.

Assays:
[1] = assay type: in vitro ADME; conditions: rat liver lysosomal homogenate, 37 °C, LC-MS
Description: Next, we examined the enzymatic stability of two peptide conjugates in rat liver lysosomal homogenate (see Supplementary Information 2 for the method description). Peptides were dissolved at 0.025 µg/µl concentration then allowed to react with the lysosomal homogenate. Degradation of the conjugates was fast. […]
1.2 Lysosomal degradation studies
Enzymatic stability of INH-Dhvar4 and INH-Penetratin conjugates were assayed in rat liver lysosomal homogenate (protein content was 16.6 µg/µl). Peptides were dissolved in 0.2 M Sodium acetate buffer (pH=5.03) at 0.025 µg/µl concentration and added to the lysosomal homogenate to reach 1 : 1 protein / peptide ratio (37 °C, 600 rpm vortex) . At different time points (5 min, 30 min, 1 h, 6 h, 24 h) the reaction was stopped by the addition of 5 µl formic acid. Sampled were then measured by LC-MS using a Thermo Scientific Q Exactive Focus Hybrid Quadrupole -Orbitrap Mass Spectrometer (Suppl. Figu re 1). For chromatography, a Wa ters Acquity UPLC BEH C18 (1.7 µ, 150 × 2.1 mm) column was used with a flow rate of 300 µL/min applying a gradient elution from 2% to […]
(1 picture or pasted object on this page, not shown here)

[2] = Analytical RP-HPLC retention time (correlates with overall hydrophobicity); assay type: physicochemical; design: Rt (retention time): unit not given here; conditions: for Rt (retention time): chromatographic measure of hydrophobicity, Waters Acquity UPLC BEH C18 (1.7 µm, 150 × 2.1 mm), flow rate 0.3 ml/min, gradient 2% B 1 min, 2%–100% B 16 min, single peak or first of two 5(6)-Cf isomer peaks; for Rt (retention time), second peak: same column and gradient, second peak due to 5(6)-Cf isomers
Description: Purified peptides were analyzed by LC-MS using a Thermo Scientific Q Exactive Focus Hybrid Quadrupole-Orbitrap Mass Spectrometer. For the separation, a Waters Acquity UPLC BEH C18 (1.7 µm, 150 × 2.1 mm) column was used with a flow rate of 0.3 ml/min.
For INH conjugation, representative cell-penetrating (CPP) and antimicrobial peptides (AMP) were chosen. These cationic, amphiphilic peptides are favored in the transportation of various cargos due to their high internalization rate. The used peptide series contains well-known CPPs such as penetratin, transportan, and Tat, frequently studied AMPs such as magainin and buforin, and designed analogs such as Dhvar4, Crot(1-9,38-42), and CM15. Also, a receptor-binding tuftsin analog (OT20), which was reported as a macrophage-targeting peptide, was also applied. […] Mass spectra and RP-HPLC chromatograms are available at https://figshare.com/s/48a023a25068f7658adf, DOI: 10.6084/m9.figshare.16644901. […] To study the internalization rate and intracellular localization, fluorescently labeled analogs were also synthesized. Note that the retention time of Cf-peptide are somewhat higher than unlabeled analogs, and in some cases, two peaks were detected due to the isomeric distribution of 5(6)-Cf molecule.

MonoMac-6 cells = assay type: cell-based, human; conditions: 10 µM Cf-peptide, 2 h, LysoTracker, ImageJ JACoP on merged images
Description: Cellular uptake and localization were visualized by confocal laser scanning microscopy. MonoMac-6 cells were seeded 1 day prior to treatment into coverslips (thickness 1, Assistent, Karl Hecht GmbH, Sondheim vor der Rhön, Germany) containing a 24-well plate (Sarstedt, Nümbrecht, Germany) for microscopy studies at a density of 7.5 × 10^4 cells/well, in 1 ml complete DMEM medium. The following day, cells were treated with Cf-peptide at a concentration of 10 µM (diluted in serum-free DMEM medium) for 2 h. Lysosomes were stained by LysoTracker Deep Red (Invitrogen, Waltham, MA, USA) for 30 min, and nuclei were stained by Hoechst 33342 solution (Thermo Scientific, USA). After each step, cells were washed three times with serum-free medium, then cells were fixed by 4% paraformaldehyde for 15 min and mounted to microscopy slides with Mowiol 4-88 (Sigma, Budapest, Hungary). Imaging was performed by a Zeiss LSM-710 system (Carl Zeiss microscopy GmbH, Oberkochen, Germany) with a ×40/1.4 Plan-Apochromat oil immersion objective using lasers with the parameters: Cf peptides λex = 488 nm, λem = 541 nm, nuclei λex = 405 nm, λem = 467 nm (Hoechst 33342), lysosomes λex = 633 nm, λem = 720 nm (LysoTrackerTM Deep Red) or λex = 577 nm, λem = 590 nm (LysoTrackerTM Red DND-99) were used. Zeiss ZEN lite software (Carl Zeiss Microscopy GmbH, Jena, Germany) was used for image processing.
Parallel with flow cytometry measurements, confocal laser scanning microscopy images were also captured in order to assess qualitative information on intracellular localization. LysoTrackerTM Deep Red was used for lysosome and Hoechst 33342 for nuclear staining to distinguish subcellular localization of the Cf-peptide. […] Colocalization of Cf-peptide and LysoTracker may be subjectively identified by the cooccurrence, the simple spatial overlap which combined the contribution of both signals (green and red) when the images of each signal are superimposed (merged, see Supplementary Figure S3 ).
microscopy at the 10 µM Cf-peptide concentration (based on flow cytometry profile), and MonoMac6 cells were incubated for 2 hrs.
the visible differences among localization profiles of the Cf-peptides, we applied greyscale analysis of
the images and the evaluation was carried out on a representative peptide set.
were studied and the treatment, the staining and fixation process were carefully optimized to assess
Laser intensity values were identical in case of all Cf-peptides. ZEN 3.0 blue lite software
was used for image processing and grey scale values were extracted using NIH ImageJ software’s Plot

Row | Compound | Rt (retention time) [2] | other results
1 | CC[C@H](C)[C@H](NC(=O)[C@H](CCCCN)NC(=O)[C@@H](NC(=O)[C@H](CCC(N)=O)NC(=O)[C@H](CCCNC(=N)N)NC(=O)CNNC(=O)c1ccncc1)[C@@H](C)CC)C(=O)N[C@@H](Cc1c[nH]c2ccccc12)C(=O)N[C@@H](Cc1ccccc1)C(=O)N[C@@H](CCC(N)=O)C(=O)N[C@@H](CC(N)=O)C(=O)N[C@@H](CCCNC(=N)N)C(=O)N[C@@H](CCCNC(=N)N)C(=O)N[C@@H](CCSC)C(=O)N[C@@H](CCCCN)C(=O)N[C@@H](Cc1c[nH]c2ccccc12)C(=O)N[C@@H](CCCCN)C(=O)N[C@@H](CCCCN)C(N)=O [INH-Penetratin] | – | peaks of the intact conjugates after 30 min of incubation ([1]; 0.2 M sodium acetate buffer pH 5.03, 0.025 µg/µl, 1:1 protein/peptide ratio): almost disappeared; most stable fragment (main peak after 24 h of incubation) ([1]; pH 5.03, 0.025 µg/µl): tetrapeptide (RQIK) with INH
2 | CC[C@H](C)[C@H](NC(=O)CN)C(=O)NCC(=O)N[C@@H](C)C(=O)N[C@H](C(=O)N[C@@H](CC(C)C)C(=O)N[C@@H](CCCCN)C(=O)N[C@H](C(=O)N[C@@H](CC(C)C)C(=O)N[C@H](C(=O)N[C@H](C(=O)NCC(=O)N[C@@H](CC(C)C)C(=O)N1CCC[C@H]1C(=O)N[C@@H](C)C(=O)N[C@@H](CC(C)C)C(=O)N[C@H](C(=O)N[C@@H](CO)C(=O)N[C@@H](Cc1c[nH]c2ccccc12)C(=O)N[C@H](C(=O)N[C@@H](CCCCN)C(=O)N[C@@H](CCCNC(=N)N)C(=O)N[C@@H](CCCCN)C(=O)N[C@@H](CCCNC(=N)N)C(=O)N[C@@H](CCC(N)=O)C(=O)N[C@@H](CCC(N)=O)C(N)=O)[C@@H](C)CC)[C@@H](C)CC)[C@@H](C)O)[C@@H](C)O)C(C)C)C(C)C [Melittin, reference compound] | 10.6 | –
3 | N=C(N)NCCC[C@H](NC(=O)[C@H](CCCNC(=N)N)NC(=O)[C@H](CCCNC(=N)N)NC(=O)[C@H](CCC(N)=O)NC(=O)[C@H](CCCNC(=N)N)NC(=O)[C@H](CCCNC(=N)N)NC(=O)[C@H](CCCCN)NC(=O)[C@H](CCCCN)NC(=O)[C@H](CCCNC(=N)N)NC(=O)CNC(=O)[C@@H](N)Cc1ccc(O)cc1)C(N)=O [Tat, reference compound] | 0.9 | –
4 | CC[C@H](C)[C@H](NC(=O)[C@H](CCCCN)NC(=O)[C@H](CCCCN)NC(=O)[C@H](C)NC(=O)[C@H](CC(C)C)NC(=O)[C@H](C)NC(=O)[C@H](C)NC(=O)[C@H](CC(C)C)NC(=O)[C@H](C)NC(=O)[C@H](CCCCN)NC(=O)[C@H](CC(C)C)NC(=O)[C@H](CC(N)=O)NC(=O)[C@@H](NC(=O)[C@H](CCCCN)NC(=O)CNC(=O)[C@H](CC(C)C)NC(=O)[C@H](CC(C)C)NC(=O)[C@H](Cc1ccc(O)cc1)NC(=O)CNC(=O)[C@H](C)N)[C@@H](C)CC)C(=O)N[C@@H](CC(C)C)C(N)=O [reference compound] | 10.6 | –
5 | Cf-AGYLLGKINLKALAALAKKIL [Cf-Penetratin, 5(6)-carboxyfluorescein-labeled penetratin] | – | Pearson's coefficient of colocalization with lysosomal staining (MonoMac-6 cells): 0.490
6 | Cf-GIGAVLKVLTTGLPALISWIKRKRQQ [Cf-Melittin, 5(6)-carboxyfluorescein-labeled melittin] | 12.2 | –
7 | Cf-GIGKFLHSAKKFGKAFVGEIMNS [Cf-Transportan, 5(6)-carboxyfluorescein-labeled transportan] | – | Pearson's coefficient of colocalization with lysosomal staining (MonoMac-6 cells): 0.823
8 | Cf-KWKLFKKIGAVLKVL [Cf-CM15, 5(6)-carboxyfluorescein-labeled CM15] | 9.6 | Pearson's coefficient of colocalization with lysosomal staining (MonoMac-6 cells): 0.358; Rt (retention time), second peak [2]: 9.7
9 | Cf-RAGLQFPVGRVHRLLRK [Cf-Buforin, 5(6)-carboxyfluorescein-labeled buforin] | 7.7 | Rt (retention time), second peak [2]: 7.8
10 | Cf-TKPKGTKPKGTKPKGTKPKG [Cf-OT20, 5(6)-carboxyfluorescein-labeled OT20] | 4.9 | Rt (retention time), second peak [2]: 5.0
11 | Cf-YGRKKRRQRRR [Cf-Tat, 5(6)-carboxyfluorescein-labeled Tat] | 4.6 | Rt (retention time), second peak [2]: 5.0
12 | Cf-YKQCHKKGGKKGSG [Cf-Crot(1-9,38-42), 5(6)-carboxyfluorescein-labeled Crot(1-9,38-42)] | 5.5 | Rt (retention time), second peak [2]: 5.8
13 | GIGKFLHSAKKFGKAFVGEIMNS-NH2 [Magainin, reference compound] | 8.2 | –
14 | KWKLFKKIGAVLKVL-NH2 [CM15, reference compound] | 8.4 | –
15 | RAGLQFPVGRVHRLLRK-NH2 [Buforin, reference compound] | 6.6 | –
16 | TKPKGTKPKGTKPKGTKPKG-NH2 [OT20, reference compound] | 1.6 | –
17 | YKQCHKKGGKKGSG-NH2 [Crot(1-9,38-42), reference compound] | 0.8 | –
